Data on 18 molecules can be found in patent US20060036073A1, “Neurotrophic and neuroprotective peptides” (priority 2002, published 2006).

The subject of experiment [1] is cortical neurons that are obtained from chicken embryos. Kind of experiment: Summary of the screening over all neuroprotection assays. To be noted: for Active in: (number of assays): Table 2 summary. The experiment is classed as cell-based. Here is the method: Since the targets of the therapy with the peptides presented according to the invention are various neurodegenerative diseases, different model systems for detecting the biological activity of the peptides according to the invention in the case of neurodegenerative diseases were used. Later, the individually used model systems and the results thus achieved are described. […] That is to say, the implementation of the tests was carried out on different days with different cell preparations and by different individuals. For some peptides, two numbers were issued (#1=#23 or #6=#35 or #7=#43), but the results with these peptides were only shown once. […] With some other substances, there were problems in the production, and thus only small amounts were available, and it was not possible to test the substances in all the assays (#12, 14, 17, 35 and #48). […] As could be seen from the figures, the standard deviations, i.e., the fluctuations between the independent experiments, are to some extent quite large. These fluctuations can be attributed to stability problems. These peptides are the peptides that are preferred within the scope of the invention.

In experiment [2] the test system is amyloid-beta peptides (β-amyloid 25-35) / nerve cell cultures. Kind of experiment: Amyloid-beta aggregation assay (peptide added to fresh amyloid-beta solution, effect on nerve cell cultures). The experiment is classed as cell-based, chicken. To be noted: for AβP reagg. (diff vs C): difference vs control, only one round of testing. Here is the method: Beta-Amyloid peptides represent, in aggregated form, a potent neurotoxin whose addition to the nerve cell cultures results in a quick and progressive cell death. Since beta-amyloid peptides constitute an essential role in the pathogenesis of Alzheimer's disease, this model can be considered especially relevant.
This biological test is a process for testing anti-aggregatory substance potential that is specially developed for this project. The newly synthesized peptides are added directly to a fresh solution of amyloid-beta peptides to prevent the formation of neurotoxic aggregates. The effect that aggregates that still develop have on growth and survival of nerve cell cultures is the measurement parameter.

Experiment [3] deals with cortical neurons that are obtained from chicken embryos. Kind of experiment: Chronic disruption of the calcium metabolism by ionomycin, neuron viability by MTT. The experiment is classed as cell-based. To be noted: ionomycin 10 μM, 24 hours. As to the method: It is common to these biological test systems that cortical neurons that are obtained from chicken embryos are cultivated in culture plates for eight days and then are exposed to a specific noxa (Pettmann et al., Nature 281 (5730): 378-80 [1979]).
To this end, a one-day-old, fertilized hen's egg is incubated for eight days at +12 +/− 0.1° C. and 80 +/− 5% atmospheric humidity. On the embryonal day 0, the eggs are transferred into an incubator and incubated up to the embryonal day 8 at 38 +/− 0.5° C. and 55 +/− 5%. After the brains are removed, the cortices are isolated, homogenized, and neurons are taken into primary culture (culture conditions: Dulbecco's Modified Eagle's Medium, 20% v/v fetal calf serum, 0.01% gentamicin, 1 g/l of glucose, 2 mmol of L-glutamine, +37° C., 5% CO2 and 95% atmospheric humidity). […] After the end of the specified stress period, the proportion of the still living neurons is determined with a metabolic colorimetric assay (the reaction of the yellow chromophore MTT to a blue formazan product is carried out only by living cells).
It is expected that in the case of various neurodegenerative diseases, chronic calcium overloading occurs because of metabolic malfunctions, which ultimately produces cell death via the activation of various enzyme systems. […]

Experiment [4] has the same test system. Kind of experiment: Serum-withdrawal assay (2% assay), neuron viability by MTT. The experiment is classed as cell-based. As to the method:
This simulates the disruptions in the stimulation of neurons with nerve growth factors that are assumed to be one of the possible causes of neurodegenerative diseases. The effectiveness of the new peptides in preventing cell death was measured.

Where a SMILES comes first, the peptide text is derived from it. Where no end group is shown, it is not given here.

For the molecule `CSCC[C@H](NC(=O)[C@H](Cc1ccccc1)NC(=O)[C@@H](NC(=O)[C@@H](N)CC(=O)O)C(C)C)C(=O)O` [BH#33, DVFM] (H-DVFM-OH; N-terminus and C-terminus assumed), in experiment [1], the “effectiveness across the screening assays (in words)” value is “effective in only one screening assay”.

As to `CC(C)[C@H](NC(=O)[C@@H](N)CC(=O)O)C(=O)N[C@@H](Cc1ccccc1)C(=O)O` [BH#34, DVF] (H-Asp-Val-Phe-OH), in experiment [2], the “AβP reagg. (diff vs C)” value was found to be 19%. In experiment [3], the “increase in cell vitality to” value was “about 150%”.

In the case of Ac-SMAKEGV [BH#8, SMAKEGV], the “increase in cell vitality to” value in experiment [3] is given as “about 150%”. Moreover, in experiment [1], the “action in models of pathological processes of neurodegenerative diseases (in words)” value is given as “excellent action” and the “Active in: (number of assays)” value is on record as 5 of 7.

Turning to DVFMK [BH#32], the “effectiveness across the screening assays (in words)” value in experiment [1] is listed as “not effective in any assay”.

Consider DVFMKGL [BH#30, DVFMKGL], for which, in experiment [1], the “effectiveness across the screening assays (in words)” value is recorded as “effective in only one screening assay”.

Consider DVFMKGLSM [BH#28, DVFMKGLSM], for which the “Active in: (number of assays)” value in experiment [1] is 4 of 7.

With DVFMKGLSMA [BH#27, DVFMKGLSMA], the “Active in: (number of assays)” value in experiment [1] was 4 of 7.

As to DVFMKGLSMAK [BH#26], the “increase of neuronal vitality by” value in experiment [2] (β-amyloid 25-35, peptide added to fresh amyloid solution) turned out to be 74%. Moreover, the “Active in: (number of assays)” value in experiment [1] is reported as 2 of 7.

GLS [BH#41]: in experiment [1], the “effectiveness across the screening assays (in words)” value is listed as “not effective in any assay”.

In the case of GLSMA [BH#39], the “effectiveness across the screening assays (in words)” value in experiment [1] is recorded as “effective in only one screening assay”.

As to GLSMAKE [BH#37, GLSMAKE], in experiment [4], the “effects over the effects of the control (=100%)” value (“effects … (=100%)” below) was found to be 150%.

For LSMAK [BH#46, LSMAK], in experiment [1], the “action in models of pathological processes of neurodegenerative diseases (in words)” value is recorded as “excellent action” and the “Active in: (number of assays)” value is given as 2 of 7.

Consider LSMAKE [BH#45, LSMAKE], for which, in experiment [1], the “effectiveness across the screening assays (in words)” value is “effective in only one screening assay”.

Consider LSMAKEGV [BH#7, LSMAKEGV], for which the “effects … (=100%)” value in experiment [4] is “approximately 450%”.

As for MDVFMK [BH#20, MDVFMK], the “effectiveness across the screening assays (in words)” value in experiment [1] is “effective in only one screening assay”.

MDVFMKG [BH#19, MDVFMKG]: the “AβP reagg. (diff vs C)” value in experiment [2] came to 20%.

In the case of MDVFMKGL [BH#18], in experiment [1], the “effectiveness across the screening assays (in words)” value is recorded as “not effective in any assay”.

Turning to MDVFMKGLSM [BH#16, MDVFMKGLSM], the “Active in: (number of assays)” value in experiment [1] is listed as 4 of 7. Also, the “effects … (=100%)” value in experiment [4] was found to be 150%.
